Data set [1] in a line: Micelle morphology by negative-stain TEM. It counts as physicochemical.
A short description of a further data set: Micelle surface charge. Particulars: 100 μM in deionized, distilled water (ddH2O); Malvern DLS Zetasizer. It counts as physicochemical.
In data set [2] the test system is LPS-activated DC CCL22 production. In words: DC CCL22 production. It is filed as cell-based, mouse.
Data set [3] concerns LPS-activated DC TNF-α secretion. In words: DC TNF-α secretion. It is filed as cell-based, mouse. Particulars: for Decrease of DC TNF-α secretion: 6 hours.
In data set [4] the test system is MHC II and CD86 on LPS-activated DCs. In words: DC surface marker expression, MHC II+CD86+ population. Particulars: 24 hours, 100 μM. It is filed as cell-based, mouse.
Data set [5] deals with LPS-activated Mφ TNF-α secretion (mouse RAW 264.7). In words: Mφ TNF-α secretion. The note with it: 6 hours. It counts as cell-based.

Turning to Vasoactive intestinal peptide [VIP], in data set [1] (100 μM (highest concentration)), the “Aggregation / particle morphology” value is “aggregate into spherical nanoparticles”. Moreover, the Particle formation entry in data set [1] (lower concentrations than 100 μM (data not shown)) is given as “no particle formation was observed”. The Zeta potential in “Micelle surface charge” is 6.82 ± 0.67 mV. Besides, the “DC CCL22 production” value in data set [2] (1 μM and 10 μM (Figure S7)) is on record as “reduced CCL22 production”; in data set [2] (100 μM (Figure S7)), “enhanced CCL22 expression”. In addition, the figures for the “Decrease of DC TNF-α secretion” value in data set [3] (10 μM) and in data set [3] (100 μM) were “slightly” and “more extensively”, respectively. Further, the “DC TNF-α secretion” value in data set [3] (24 hours, 1 μM and 10 μM, versus LPS alone) was “suppressed TNF-α generation”. Moreover, the “MHC II and CD86 surface markers on DCs” value in data set [4] was “failed to downregulate MHC II and CD86”. Moreover, the “Mφ TNF-α secretion” value is recorded as “cytokine secretion was suppressed” in data set [5] (100 μM) and “mild to moderate TNF-α suppression” in data set [5] (concentration-dependent (0.1 - 100 μM), versus LPS alone).

Source of the values: publication doi:10.1101/2021.09.10.459855v1 (bioRxiv, 2021).
